This note sets out measurements from the SangsterLogP compilation.

A short description of the data set: method code SF-AS, from DOI: 10.1016/0006-2952(77)90261-1, PMID: 588293. To be noted: for logD: pH 7.4.

As a reminder, the logD is lipophilicity at a set pH, counting ionised and neutral species. By logP is commonly meant the decadic logarithm of the partition coefficient of the neutral form, usually between octanol and water. A higher logP goes with a more lipophilic compound.

Molecule `CCCCCCCCC1(CC)C(=O)NC(=O)NC1=O` gave a logD of 3.08.

For the molecule `CCC1(C2=CCCCC2)C(=O)NC(=O)NC1=O`, the logD came to 1.77.

For `C=CCC1(C(C)C)C(=O)NC(=O)NC1=O`, the logD worked out at 1.22.

`CCC1(C2=CCCCCC2)C(=O)NC(=O)NC1=O` registered a logD of 2.17.

`C=CCC1(C(C)CCC)C(=O)NC(=O)NC1=O` (configuration not stated) yielded a logD of 1.97.

As to `CCCCCCC1(CC)C(=O)NC(=O)NC1=O`, the pH-dependent lipophilicity (logD) was found to be 2.46.

Take `C=CCC1(CC(C)(C)C)C(=O)NC(=O)NC1=O`: the logD was determined as 1.71.

For `C=C(Br)CC1(C(C)CC)C(=O)NC(=O)NC1=O` (configuration not stated), the logD came to 1.72.

Regarding `CCC1(C2=CCCCC2)C(=O)NC(=O)N(C)C1=O` (configuration not stated), the log distribution coefficient (logD) came out at 2.25.

`CCC1(CC(C)C(C)C)C(=O)NC(=O)NC1=O` (configuration not stated) showed a logP of 2.02.

On to `C=CCC1(CC(=C)Br)C(=O)NC(=O)NC1=O`, for which the logD is 1.37.

`C=CCC1(C2=CCCC2)C(=O)NC(=O)N(C)C1=O` (configuration not stated) gave a logD of 1.89.

`CCCC1(CC)C(=O)NC(=O)NC1=O` yielded a pH-dependent lipophilicity (logD) of 0.66.

Consider `C=CCC1(C2C=CCC2)C(=O)NC(=O)NC1=O` (configuration not stated), for which the logD came to 1.51.

As for `C=C(Br)CC1(C(C)CC)C(=O)NC(=O)N(C)C1=O` (configuration not stated), the logD amounted to 2.43.

Regarding `C=C(Br)CC1(C(C)CCC)C(=O)NC(=O)NC1=O` (configuration not stated), the logD was 2.09.

Molecule `CCC1(C2=CC3CCC(C2)C3)C(=O)NC(=O)NC1=O` (configuration not stated) yielded a pH-dependent lipophilicity (logD) of 2.53.

Molecule `CCC1(C2=CCCCCC2)C(=O)NC(=O)N(C)C1=O` (configuration not stated) had a logD of 2.82.

Regarding `C=C(Br)CC1(C(C)C)C(=O)NC(=O)N(C)C1=O` (configuration not stated), the logD was 2.11.

With `C=C(Br)CC1(C(C)C)C(=O)NC(=O)NC1=O`, the log distribution coefficient (logD) came to 1.47.

Molecule `CCC1(C2=CC3CCC(C2)C3)C(=O)NC(=O)N(C)C1=O` (configuration not stated) gave a logD of 3.15.

`CCCCCCCC1(CC)C(=O)NC(=O)NC1=O`: the logD came to 2.91.
